{"source": "the supplement of paper PMC10307832", "assay_in_all_cases": "relative viability (nuclei count vs DMSO), 5 days (fraction); higher = more cells survive", "key": {"NCI-H1395": {"system": "NCI-H1395", "procedure,_shortened": "(§1)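 One day after seeding in 1536-well plates, lung cancer cell lines were dosed by pin tool. Dosing was either single-drug or a fixed anchor-drug dose plus five library-drug doses (not always all listed) in √10 steps. After 5 days, nuclei were stained in one fix-and-stain step and counted on 4× images, and relative viability is the nuclei count of treated wells over that of vehicle wells, given as the median of duplicate plates.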"}, "NCI-H1651": {"system": "NCI-H1651", "procedure,_shortened": "as §1"}, "NCI-H3122": {"system": "NCI-H3122", "procedure,_shortened": "as §1"}, "NCI-H2228": {"system": "NCI-H2228", "procedure,_shortened": "as §1"}, "NCI-H2087": {"system": "NCI-H2087", "procedure,_shortened": "as §1"}, "PC-3 [JPC-3]": {"system": "PC-3 [JPC-3]", "procedure,_shortened": "as §1"}, "LU99A": {"system": "LU99A", "procedure,_shortened": "as §1"}, "HCC-366": {"system": "HCC-366", "procedure,_shortened": "as §1"}, "CAL-12T": {"system": "CAL-12T", "procedure,_shortened": "as §1"}, "RERF-LC-KJ": {"system": "RERF-LC-KJ", "procedure,_shortened": "as §1"}, "NCI-H460": {"system": "NCI-H460", "procedure,_shortened": "as §1"}, "NCI-H1755": {"system": "NCI-H1755", "procedure,_shortened": "as §1"}, "NCI-H1944": {"system": "NCI-H1944", "procedure,_shortened": "as §1"}, "ChaGo-K-1": {"system": "ChaGo-K-1", "procedure,_shortened": "as §1"}, "NCI-H2170": {"system": "NCI-H2170", "procedure,_shortened": "as §1"}, "NCI-H2405": {"system": "NCI-H2405", "procedure,_shortened": "as §1"}, "LC-2-ad": {"system": "LC-2-ad", "procedure,_shortened": "as §1"}, "NCI-H1793": {"system": "NCI-H1793", "procedure,_shortened": "as §1"}, "HCC-78": {"system": "HCC-78", "procedure,_shortened": "as §1"}, "UMC-11": {"system": "UMC-11", "procedure,_shortened": "as §1"}, "LOU-NH91": {"system": "LOU-NH91", "procedure,_shortened": "as §1"}}, "data": [{"smiles": "COc1nc(C)cnc1NS(=O)(=O)c1cccnc1-c1ccc(-c2nnco2)cc1", "note": "[Zibotentan] + CC1(C)CCC(c2ccc(Cl)cc2)=C(CN2CCN(c3ccc(C(=O)NS(=O)(=O)c4ccc(N[C@H](CCN5CCOCC5)CSc5ccccc5)c(S(=O)(=O)C(F)(F)F)c4)cc3)CC2)C1 [Navitoclax] (partner 0.5 µM)", "values": [{"measurement": "relative viability", "setting": "NCI-H1395; first compound 0.08 µM", "value": 1.54}, {"measurement": "relative viability", "setting": "NCI-H1395; first compound 0.253 µM", "value": 1.03}, {"measurement": "relative viability", "setting": "NCI-H1395; first compound 0.8 µM", "value": 1.07}, {"measurement": "relative viability", "setting": "NCI-H1395; first compound 2.53 µM", "value": 1.12}, {"measurement": "relative viability", "setting": "NCI-H1651; first compound 0.08 µM", "value": 1.08}, {"measurement": "relative viability", "setting": "NCI-H1651; first compound 0.253 µM", "value": 0.875}, {"measurement": "relative viability", "setting": "NCI-H1651; first compound 0.8 µM", "value": 1}, {"measurement": "relative viability", "setting": "NCI-H1651; first compound 2.53 µM", "value": 1.11}, {"measurement": "relative viability", "setting": "NCI-H3122; first compound 0.08 µM", "value": 1.04}, {"measurement": "relative viability", "setting": "NCI-H3122; first compound 0.253 µM", "value": 1.01}, {"measurement": "relative viability", "setting": "NCI-H3122; first compound 0.8 µM", "value": 1.04}, {"measurement": "relative viability", "setting": "NCI-H3122; first compound 2.53 µM", "value": 1.06}, {"measurement": "relative viability", "setting": "NCI-H2228; first compound 0.08 µM", "value": 0.942}, {"measurement": "relative viability", "setting": "NCI-H2228; first compound 0.253 µM", "value": 0.85}, {"measurement": "relative viability", "setting": "NCI-H2228; first compound 0.8 µM", "value": 0.685}, {"measurement": "relative viability", "setting": "NCI-H2228; first compound 2.53 µM", "value": 1.44}, {"measurement": "relative viability", "setting": "NCI-H2087; first compound 0.08 µM", "value": 1.03}, {"measurement": "relative viability", "setting": "NCI-H2087; first compound 0.253 µM", "value": 1.15}, {"measurement": "relative viability", "setting": "NCI-H2087; first compound 0.8 µM", "value": 0.983}, {"measurement": "relative viability", "setting": "NCI-H2087; first compound 2.53 µM", "value": 1.05}, {"measurement": "relative viability", "setting": "PC-3 [JPC-3]; first compound 0.08 µM", "value": 0.771}, {"measurement": "relative viability", "setting": "PC-3 [JPC-3]; first compound 0.253 µM", "value": 0.726}, {"measurement": "relative viability", "setting": "PC-3 [JPC-3]; first compound 0.8 µM", "value": 0.795}, {"measurement": "relative viability", "setting": "PC-3 [JPC-3]; first compound 2.53 µM", "value": 0.728}, {"measurement": "relative viability", "setting": "LU99A; first compound 0.08 µM", "value": 0.753}, {"measurement": "relative viability", "setting": "LU99A; first compound 0.253 µM", "value": 0.768}, {"measurement": "relative viability", "setting": "LU99A; first compound 0.8 µM", "value": 0.791}, {"measurement": "relative viability", "setting": "LU99A; first compound 2.53 µM", "value": 0.869}, {"measurement": "relative viability", "setting": "HCC-366; first compound 0.08 µM", "value": 1.12}, {"measurement": "relative viability", "setting": "HCC-366; first compound 0.253 µM", "value": 1.14}, {"measurement": "relative viability", "setting": "HCC-366; first compound 0.8 µM", "value": 1.15}, {"measurement": "relative viability", "setting": "HCC-366; first compound 2.53 µM", "value": 1.06}, {"measurement": "relative viability", "setting": "CAL-12T; first compound 0.08 µM", "value": 1.27}, {"measurement": "relative viability", "setting": "CAL-12T; first compound 0.253 µM", "value": 1}, {"measurement": "relative viability", "setting": "CAL-12T; first compound 0.8 µM", "value": 1.45}, {"measurement": "relative viability", "setting": "CAL-12T; first compound 2.53 µM", "value": 1.06}, {"measurement": "relative viability", "setting": "RERF-LC-KJ; first compound 0.08 µM", "value": 0.996}, {"measurement": "relative viability", "setting": "RERF-LC-KJ; first compound 0.253 µM", "value": 1.2}, {"measurement": "relative viability", "setting": "RERF-LC-KJ; first compound 0.8 µM", "value": 0.887}, {"measurement": "relative viability", "setting": "RERF-LC-KJ; first compound 2.53 µM", "value": 0.976}, {"measurement": "relative viability", "setting": "NCI-H460; first compound 0.08 µM", "value": 1.41}, {"measurement": "relative viability", "setting": "NCI-H460; first compound 0.8 µM", "value": 1.14}, {"measurement": "relative viability", "setting": "NCI-H460; first compound 2.53 µM", "value": 1.23}, {"measurement": "relative viability", "setting": "NCI-H1755; first compound 0.08 µM", "value": 1.01}, {"measurement": "relative viability", "setting": "NCI-H1755; first compound 0.253 µM", "value": 0.99}, {"measurement": "relative viability", "setting": "NCI-H1755; first compound 0.8 µM", "value": 1}, {"measurement": "relative viability", "setting": "NCI-H1755; first compound 2.53 µM", "value": 1.02}, {"measurement": "relative viability", "setting": "NCI-H1944; first compound 0.08 µM", "value": 1.06}, {"measurement": "relative viability", "setting": "NCI-H1944; first compound 0.253 µM", "value": 1.07}, {"measurement": "relative viability", "setting": "NCI-H1944; first compound 0.8 µM", "value": 0.977}, {"measurement": "relative viability", "setting": "NCI-H1944; first compound 2.53 µM", "value": 1.03}, {"measurement": "relative viability", "setting": "ChaGo-K-1; first compound 0.08 µM", "value": 0.95}, {"measurement": "relative viability", "setting": "ChaGo-K-1; first compound 0.8 µM", "value": 0.695}, {"measurement": "relative viability", "setting": "ChaGo-K-1; first compound 2.53 µM", "value": 0.888}, {"measurement": "relative viability", "setting": "NCI-H2170; first compound 0.08 µM", "value": 0.699}, {"measurement": "relative viability", "setting": "NCI-H2170; first compound 0.253 µM", "value": 0.6}, {"measurement": "relative viability", "setting": "NCI-H2170; first compound 0.8 µM", "value": 0.651}, {"measurement": "relative viability", "setting": "NCI-H2170; first compound 2.53 µM", "value": 0.651}, {"measurement": "relative viability", "setting": "NCI-H2405; first compound 0.08 µM", "value": 0.904}, {"measurement": "relative viability", "setting": "NCI-H2405; first compound 0.253 µM", "value": 0.725}, {"measurement": "relative viability", "setting": "NCI-H2405; first compound 0.8 µM", "value": 0.921}, {"measurement": "relative viability", "setting": "NCI-H2405; first compound 2.53 µM", "value": 1.01}, {"measurement": "relative viability", "setting": "LC-2-ad; first compound 0.08 µM", "value": 0.36}, {"measurement": "relative viability", "setting": "LC-2-ad; first compound 0.253 µM", "value": 0.386}, {"measurement": "relative viability", "setting": "LC-2-ad; first compound 0.8 µM", "value": 0.533}, {"measurement": "relative viability", "setting": "LC-2-ad; first compound 2.53 µM", "value": 0.516}, {"measurement": "relative viability", "setting": "NCI-H1793; first compound 0.08 µM", "value": 0.506}, {"measurement": "relative viability", "setting": "NCI-H1793; first compound 0.253 µM", "value": 0.405}, {"measurement": "relative viability", "setting": "NCI-H1793; first compound 0.8 µM", "value": 0.414}, {"measurement": "relative viability", "setting": "NCI-H1793; first compound 2.53 µM", "value": 0.486}, {"measurement": "relative viability", "setting": "HCC-78; first compound 0.08 µM", "value": 0.859}, {"measurement": "relative viability", "setting": "HCC-78; first compound 0.253 µM", "value": 0.687}, {"measurement": "relative viability", "setting": "HCC-78; first compound 0.8 µM", "value": 0.664}, {"measurement": "relative viability", "setting": "HCC-78; first compound 2.53 µM", "value": 0.764}, {"measurement": "relative viability", "setting": "UMC-11; first compound 0.08 µM", "value": 0.303}, {"measurement": "relative viability", "setting": "UMC-11; first compound 0.253 µM", "value": 0.32}, {"measurement": "relative viability", "setting": "UMC-11; first compound 0.8 µM", "value": 0.293}, {"measurement": "relative viability", "setting": "UMC-11; first compound 2.53 µM", "value": 0.302}, {"measurement": "relative viability", "setting": "LOU-NH91; first compound 0.08 µM", "value": 0.693}, {"measurement": "relative viability", "setting": "LOU-NH91; first compound 0.253 µM", "value": 0.635}, {"measurement": "relative viability", "setting": "LOU-NH91; first compound 0.8 µM", "value": 0.812}, {"measurement": "relative viability", "setting": "LOU-NH91; first compound 2.53 µM", "value": 0.66}]}]}
